Type in all cases: cell-based
Experiment [1] relates to Mycobacterium smegmatis ATCC700084. As to the kind of experiment: MIC, microbroth dilution (NCCLS). Conditions: Mycolicibacterium smegmatis, rifS strain, Middlebrook Broth plus ADC Enrichment, 37° C., read-out: Antimicrobial activity (MIC). On the technique in general: In broth dilution the organism is exposed to a series of concentrations in liquid medium.
Experiment [2] has as its system Staphylococcus aureus ATCC29213. As to the kind of experiment: MIC, microbroth dilution (NCCLS). Conditions: rifS strain, Cation-Adjusted Mueller-Hinton Broth, 37° C., read-out: Antimicrobial activity (MIC).
For experiment [3], the system named is Streptococcus pneumoniae ATCC6303. As to the kind of experiment: MIC, microbroth dilution (NCCLS). Conditions: rifS strain, THY Broth with 1 mg/mL catalase, 5% CO2, 37° C., read-out: Antimicrobial activity (MIC).
Experiment [4] concerns Staphylococcus epidermidis ATCC12228. Nature of the experiment: MIC, microbroth dilution (NCCLS). Conditions: rifS strain, Cation-Adjusted Mueller-Hinton Broth, 37° C., read-out: Antimicrobial activity (MIC).
In experiment [5] the test system is Staphylococcus aureus EN1252a gyrA^S84L grlA^S80F. Nature of the experiment: microbe, parasite or virus in culture. The following applies: read-out: Antimicrobial activity (MIC). As for the experimental part:
(§1) Representative compounds were assayed for antimicrobial activity as follows: Minimum Inhibitory Concentrations (“MICs”) were determined by the microbroth dilution method as per NCCLS guidelines (National Committee for Clinical Laboratory Standards. 2000. Methods for dilution antimicrobial susceptibility tests for bacteria that grow aerobically, 5th ed. M7-A5. National Committee for Clinical Laboratory Standards, Wayne, Pa.), except that all growth incubations were conducted at 37° C. Bacterial cultures were tested in the following bacteriological media: S. aureus, S. epidermidis, and E. coli in Cation-Adjusted Mueller-Hinton Broth, S. pneumoniae in THY Broth supplemented with 1 mg/mL catalase under 5% CO2 atmosphere, S. pyogenes in THY Broth, E. faecalis in BHI Broth, H. influenzae in BHI Broth supplemented with 0.75 μL of 1 mg/mL NAD and 150 μL of 1 mg/ml hematin per 5 mL, and M. smegmatis in Middlebrook Broth plus ADC Enrichment.
(§2) S. aureus ATCC 29213 RpoB^H418Y is a rifampin-resistant strain with a mutation in RNA polymerase, the biological target of rifamycin antibiotics. […] S. aureus EN1252a gyrA^S84L grlA^S80F is a quinolone-resistant strain due to double mutations to DNA gyrase and topoisomerase IV, the two biological targets for quinolone antibiotics.

The test system of experiment [6] is Staphylococcus aureus ATCC29213 rpoB^H418Y. As to the kind of experiment: microbe, parasite or virus in culture. Conditions: ATCC29213, read-out: Antimicrobial activity (MIC). As for the experimental part: as §1, §2
Experiment [7] has as its system Staphylococcus aureus ATCC29213 rpoB^D417Y. Nature of the experiment: microbe, parasite or virus in culture. The following applies: ATCC29213, read-out: Antimicrobial activity (MIC). Here is the method: as §1, §2
In experiment [8] the test system is Escherichia coli ATCC25922. As to the kind of experiment: MIC, microbroth dilution (NCCLS). Conditions: rifS strain, Cation-Adjusted Mueller-Hinton Broth, 37° C., read-out: Antimicrobial activity (MIC).
Experiment [9] relates to Haemophilus influenzae ATCC10211. As to the kind of experiment: MIC, microbroth dilution (NCCLS). The following applies: rifS strain, BHI Broth with NAD and hematin, 37° C., read-out: Antimicrobial activity (MIC).
Experiment [10] relates to Enterococcus faecalis ATCC29212. Nature of the experiment: MIC, microbroth dilution (NCCLS). Conditions: rifS strain, BHI Broth, 37° C., read-out: Antimicrobial activity (MIC).
The subject of experiment [11] is Streptococcus pyogenes ATCC19615. As to the kind of experiment: MIC, microbroth dilution (NCCLS). Conditions: rifS strain, THY Broth, 37° C., read-out: Antimicrobial activity (MIC).

Converted amounts (≈) assume the structure as drawn.

For the compound `COc1c(N2CCC(C3(N(C)C4CCN(C5=C6NC(=O)/C(C)=C\C=C\[C@H](C)[C@H](O)[C@@H](C)[C@@H](O)[C@@H](C)[C@H](OC(C)=O)[C@H](C)[C@@H](OC)/C=C/O[C@@]7(C)Oc8c(C)c(O)c(c(c8C7=O)C5=O)C6=O)CC4)CC3)C2)c(F)cc2c(=O)c(C(=O)O)cn(C3CC3)c12` (mixture of isomers) [Example 41], the MIC was 0.5 to 64 µg/mL in experiment [1]; 0.004 to 0.5 µg/mL (≈ 0.00335 to 0.419 µM) in experiment [2]; 0.008 to 0.125 µg/mL (≈ 0.00671 to 0.105 µM) in experiment [3]; 0.008 to 0.063 µg/mL (≈ 0.00671 to 0.0528 µM) in experiment [4]; 0.004 to 0.5 µg/mL (≈ 0.00335 to 0.419 µM) in experiment [5]; 0.06 to 16 µg/mL (≈ 0.0503 to 13.4 µM) in [6]. In addition, the MIC was in the range of 0.06 to 32 µg/mL (≈ 0.0503 to 26.8 µM) in experiment [7]; 0.125 to 8 µg/mL (≈ 0.105 to 6.71 µM) in experiment [8]; 0.125 to 2 µg/mL (≈ 0.105 to 1.68 µM) in [9]; 2 to 32 µg/mL (≈ 1.68 to 26.8 µM) in experiment [10]; 0.008 to 0.063 µg/mL (≈ 0.00671 to 0.0528 µM) in experiment [11].
For `CO[C@H]1/C=C/O[C@@]2(C)Oc3c(C)c(O)c4c(c3C2=O)C(=O)C(N2CCCC3(CCN(c5nc6c(cc5F)c(=O)c(C(=O)O)cn6-c5ccc(F)cc5F)C3)C2)=C(NC(=O)/C(C)=C\C=C\[C@H](C)[C@H](O)[C@@H](C)[C@@H](O)[C@@H](C)[C@H](OC(C)=O)[C@@H]1C)C4=O` (stereo partly shown) [Example 60], the MIC in [1] lay within 0.5 to 64 µg/mL; in [2], 0.004 to 0.5 µg/mL (≈ 0.00347 to 0.434 µM); in experiment [3], 0.008 to 0.125 µg/mL (≈ 0.00694 to 0.108 µM); in [4], 0.008 to 0.063 µg/mL (≈ 0.00694 to 0.0547 µM); in experiment [5] it was 0.004 to 0.5 µg/mL (≈ 0.00347 to 0.434 µM); in experiment [6], 0.06 to 16 µg/mL (≈ 0.0521 to 13.9 µM). Moreover, the MIC was in the range of 0.06 to 32 µg/mL (≈ 0.0521 to 27.8 µM) in experiment [7]; 0.125 to 8 µg/mL (≈ 0.108 to 6.94 µM) in [8]; 0.125 to 2 µg/mL (≈ 0.108 to 1.74 µM) in experiment [9]; 2 to 32 µg/mL (≈ 1.74 to 27.8 µM) in experiment [10]; 0.008 to 0.063 µg/mL (≈ 0.00694 to 0.0547 µM) in [11].
`COc1c(N2CCN(C3=C4NC(=O)/C(C)=C\C=C\[C@H](C)[C@H](O)[C@@H](C)[C@@H](O)[C@@H](C)[C@H](OC(C)=O)[C@H](C)[C@@H](OC)/C=C/O[C@@]5(C)Oc6c(C)c(O)c(c(c6C5=O)C3=O)C4=O)C(C)C2)c(F)cc2c(=O)c(C(=O)O)cn(C3CC3)c12` (stereo partly drawn) [Example 10, (R,S)-3-[4-(3-Carboxy-1-cyclopropyl-6-fluoro-8-methoxy-4-oxo-1,4-dihydroquinolin-7-yl)-2-methylpiperazin-1-yl]rifamycin S]: the MIC in experiment [1] was in the range of 0.5 to 64 µg/mL; in experiment [2], 0.004 to 0.5 µg/mL (≈ 0.00374 to 0.468 µM); in [3], 0.008 to 0.125 µg/mL (≈ 0.00748 to 0.117 µM); in experiment [4] it was 0.008 to 0.063 µg/mL (≈ 0.00748 to 0.0589 µM); in experiment [5] it was 0.004 to 0.5 µg/mL (≈ 0.00374 to 0.468 µM); in experiment [6] it was 0.06 to 16 µg/mL (≈ 0.0561 to 15 µM). Besides, the MIC was 0.06 to 32 µg/mL (≈ 0.0561 to 29.9 µM) in [7]; 0.125 to 8 µg/mL (≈ 0.117 to 7.48 µM) in experiment [8]; 0.125 to 2 µg/mL (≈ 0.117 to 1.87 µM) in experiment [9]; 2 to 32 µg/mL (≈ 1.87 to 29.9 µM) in experiment [10]; 0.008 to 0.063 µg/mL (≈ 0.00748 to 0.0589 µM) in [11].
Consider `COc1c(N2CCN(C(=O)C3CCN(C4=C5NC(=O)/C(C)=C\C=C\[C@H](C)[C@H](O)[C@@H](C)[C@@H](O)[C@@H](C)[C@H](OC(C)=O)[C@H](C)[C@@H](OC)/C=C/O[C@@]6(C)Oc7c(C)c(O)c(c(c7C6=O)C4=O)C5=O)CC3)CC2)c(F)cc2c(=O)c(C(=O)O)cn(C3CC3)c12` [Example 51, 3-{4-[4-(3-Carboxy-1-cyclopropyl-6-fluoro-8-methoxy-4-oxo-1,4-dihydroquinolin-7-yl)-piperazin-1-ylcarbonyl]-piperidin-1-yl}rifamycin S], for which the MIC lay in the range of 0.5 to 64 µg/mL in experiment [1]; 0.004 to 0.5 µg/mL (≈ 0.00343 to 0.429 µM) in experiment [2]; 0.008 to 0.125 µg/mL (≈ 0.00686 to 0.107 µM) in experiment [3]; 0.008 to 0.063 µg/mL (≈ 0.00686 to 0.054 µM) in experiment [4]; 0.004 to 0.5 µg/mL (≈ 0.00343 to 0.429 µM) in [5]; 0.06 to 16 µg/mL (≈ 0.0514 to 13.7 µM) in experiment [6]. Further, the MIC in experiment [7] was 0.06 to 32 µg/mL (≈ 0.0514 to 27.4 µM); in [8], 0.125 to 8 µg/mL (≈ 0.107 to 6.86 µM); in [9], 0.125 to 2 µg/mL (≈ 0.107 to 1.71 µM); in experiment [10], 2 to 32 µg/mL (≈ 1.71 to 27.4 µM); in experiment [11] it was 0.008 to 0.063 µg/mL (≈ 0.00686 to 0.054 µM).
Regarding `CO[C@H]1/C=C/O[C@@]2(C)Oc3c(C)c(O)c4c(O)c(c(CN5CCN(c6cc7c(cc6F)c(=O)c(C(=O)O)cn7C6CC6)CC5)c(O)c4c3C2=O)NC(=O)/C(C)=C\C=C\[C@H](C)[C@H](O)[C@@H](C)[C@@H](O)[C@@H](C)[C@H](OC(C)=O)[C@@H]1C` [Example 12, 3-[4-[3-Carboxy-1-cyclopropyl-6-fluoro-4-oxo-(1,4-dihydroquinolin-7-yl)]-piperazin-1-ylmethyl]rifamycin SV], the MIC in [1] fell in the range of 0.5 to 64 µg/mL; in [2], 0.004 to 0.5 µg/mL (≈ 0.00384 to 0.48 µM); in experiment [3], 0.008 to 0.125 µg/mL (≈ 0.00768 to 0.12 µM); in experiment [4] it was 0.008 to 0.063 µg/mL (≈ 0.00768 to 0.0605 µM); in experiment [5] it was 0.004 to 0.5 µg/mL (≈ 0.00384 to 0.48 µM); in experiment [6], 0.06 to 16 µg/mL (≈ 0.0576 to 15.4 µM). The MIC in [7] was in the range of 0.06 to 32 µg/mL (≈ 0.0576 to 30.7 µM); in experiment [8], 0.125 to 8 µg/mL (≈ 0.12 to 7.68 µM); in experiment [9], 0.125 to 2 µg/mL (≈ 0.12 to 1.92 µM); in [10], 2 to 32 µg/mL (≈ 1.92 to 30.7 µM); in [11], 0.008 to 0.063 µg/mL (≈ 0.00768 to 0.0605 µM).
